Test [1] deals with RPMI-8226 cells. Briefly: Anti-proliferation assay (ATPLite, 72 h), RPMI-8226. The test is classed as cell-based. As to conditions: for synergy score: RPMI-8226. On the technique in general: ATP-based viability assays read luminescence as a measure of living cells.
For test [2], the system named is H929 cells. Briefly: Anti-proliferation assay (ATPLite, 72 h), H929. It counts as cell-based. The settings on record: for Synergy score with dexamethasone, H929: combination with dexamethasone, Loewe-based Synergy Score, 72 h; for synergy score: H929.
The subject of test [3] is MM.1S cells. Briefly: Anti-proliferation assay (ATPLite, 72 h), MM.1S. As to conditions: for Synergy score with dexamethasone, MM.1S: combination with dexamethasone, Loewe-based Synergy Score; for synergy score: MM.1S.
The test system of test [4] is MM.1S cells. The settings on record: MM.1S.
The subject of test [5] is MM.1R cells. Briefly: Anti-proliferation assay (ATPLite, 72 h), MM.1R. The test is classed as cell-based.
Test [6] deals with chronic lymphocytic leukemia (CLL) cells. Briefly: Apoptosis assay (Hoechst 33342 flow cytometry, 48 h) on patient CLL cells. The test is classed as cell-based, human. The settings on record: for Induction of CLL cell apoptosis: Patient #1. The text has this:
Patients with active infections or other serious medical conditions were not included in this study. Patients with white blood cell counts of less than 15,000/μl by automated analysis were excluded from this study. Whole blood was layered on Ficoll-Hystopaque (Sigma), and peripheral blood mononuclear cells (PBMC) isolated after centrification. […] One million cells were stained with anti-CD5-PE and anti-CD19-PE-Cy5 (Becton […].). The percentage of B-CLL cells was defined as the percentage of cells doubly expressing CD5 and CD19, as determined by flow cytometry. […] Compound master plates were diluted 1:50 into complete media to create working compound dilutions. Compound crosses were then created by diluting two working dilution plates 1:10 into each plate of cells. […] Hoechst 33342 (Molecular Probes, Eugene Oreg.) at a final concentration of 0.25 μg/mL was added to each well and the cells incubated at 37° C. for an additional ten minutes before being placed on ice until analysis. Plates were then analyzed on a LSR-II flow cytometer (Becton Dickenson, Franklin Lakes, N.J.) equipped with the High Throughput Sampling (HTS) option in high throughput mode. […] The apoptotic fraction was calculated using FlowJo software (Tree Star Inc., Ashland, Oreg.) after excluding debris by a FSC/SSC gate and subsequently gating for cells that accumulate the Hoechst dye.

Where [7] appears, read: combination with dexamethasone, Loewe-based Synergy Score, 72 h.
[8] abbreviates: Homo sapiens, MM1.S, read-out: percent inhibition of cell proliferation.
The mark [9] stands for this setting: in combination with ADAC, MM.1R.
Setting [10] is: in combination with HE-NECA, MM.1R.
Where [11] appears, read: Homo sapiens, MM1.S, 72 h, read-out: percent inhibition of cell proliferation.

Counter-ions that a name gives are not always drawn. Like-named read-outs stand apart in the source and are kept apart here.

As for `COc1ccc(Cc2nn3c([C@@H](CCCc4ccccc4)[C@@H](C)O)nc(C)c3c(=O)[nH]2)cc1OC` [BAY 60-7550, 2-(3,4-dimethoxybenzyl)-7-[(1R)-1-[(1R)-1-hydroxyethyl]-4-phenylbutyl]-5-methylimidazo[5,1-f][1,2,4]triazin-4(3H)-one], the “Synergy score with dexamethasone, RPMI-8226” value (from here on “Synergy score … RPMI-8226”) in test [1] (setting [7]) is on record as 1.37. For the same compound, the “Synergy score with dexamethasone, H929” value in test [2] was determined as 0.822. In test [3] (setting [8]), the inhibition at 0.437 µM came to 2.2%, the inhibition at 1.31 µM stood at 1.7%, the inhibition at 3.93 µM was determined as 3% and the inhibition at 35.4 µM stood at 44%. Besides, in test [3] (72 h), the “Synergy score with dexamethasone, MM.1S” value stood at 1.44.

Turning to `Nc1nc2c(cnn2CCc2ccccc2)c2nc(-c3ccco3)nn12` [SCH 58261], the “blocking of chloro-IB-MECA antiproliferative activity” value in test [4] (SCH 58261 78 nM, 72 hours, 2-fold dilutions of chloro-IB-MECA) is reported as more than 50%; in test [4] (antagonist concentration increased 2-fold), more than 70%.

With `C[C@H]1c2cccc(O)c2C(=O)C2=C(O)[C@]3(O)C(=O)C(C(N)=O)=C(O)[C@@H](N(C)C)[C@@H]3[C@@H](O)[C@@H]21` [Doxycycline], the synergy score in test [1] (in combination with ADAC) was 1.17; in test [2] (in combination with ADAC), 2.35; in test [5] (setting [9]), 0.78; in test [3] (in combination with ADAC) it was 2.22.

Consider `CCCCCC[C@@H]([C@@H](C)O)n1cnc2c(N)ncnc21` (racemic) [EHNA, erythro-9-(2-hydroxy-3-nonyl)adenine], for which the “Synergy score … RPMI-8226” value in test [1] was determined as 1.14.

Take `CCCCOc1ccc(CC(=O)NO)cc1` [Bufexamac]: the synergy score was 1.399 in test [1] (in combination with ADAC); 0.3833 in test [1] (in combination with HE-NECA); 1.12 in test [2] (in combination with ADAC); 3.17 in test [2] (in combination with HE-NECA); 1.532 in test [5] (setting [9]); 3.173 in test [5] (setting [10]). In addition, the values for the synergy score in test [3] (in combination with ADAC) and in test [3] (in combination with HE-NECA) were 1.479 and 3.476, respectively.

In the case of `OC[C@H]1O[C@@H](n2cnc3c(NC4CCCC4)nc(Cl)nc32)[C@H](O)[C@@H]1O` [CCPA, 2-chloro-N^6-cyclopentyladenosine], the “Synergy score … RPMI-8226” value in test [1] (setting [7]) is 5.04. In addition, in test [3] (setting [11]), the inhibition at 0.0625 µM came to 2.4%, the inhibition at 0.187 µM is 21%, the inhibition at 0.562 µM worked out at 15% and the inhibition at 1.69 µM is 38%. Moreover, in test [3] (setting [11]), the inhibition at 5.06 µM amounted to 50%. For the same compound, in test [3] (RPMI-8226, H929, MM.1S and MM.1R MM cell lines), the “activity and synergy in antiproliferation assays” value was “active and synergistic”. For the same compound, the “Synergy score with dexamethasone, MM.1S” value in test [3] (72 h) was 5.15.

As for `CN1C[C@H](C(=O)N[C@]2(C)O[C@@]3(O)[C@@H]4CCCN4C(=O)[C@H](Cc4ccccc4)N3C2=O)C[C@@H]2c3cccc4[nH]cc(c34)C[C@H]21` [Dihydroergotamine], the “synergy score” value in test [5] (setting [10]) stood at 2.56.

As to `O=c1[nH]c(=O)n([C@H]2C[C@H](O)[C@@H](CO)O2)cc1C(F)(F)F` [Trifluridine], the “synergy score” value in test [5] (setting [10]) was found to be 1.94.

Turning to `O=C1C=C2C(=CCOC2O)O1` (centres unmarked) [Patulin], in test [5] (setting [10]), the “synergy score” value was determined as 1.73.

Turning to `CC(C)[C@]12O[C@H]1[C@@H]1O[C@]13[C@]1(O[C@H]1C[C@H]1C4=C(CC[C@@]13C)C(=O)OC4)[C@@H]2O` [Triptolide], the “synergy score” value in test [5] (setting [10]) was 2.12.

Take `CCCCc1oc2ccccc2c1C(=O)c1cc(I)c(OCCN(CC)CC)c(I)c1` [Amiodarone]: the “synergy score” value in test [5] (setting [10]) is 0.67.

For the compound `CCNC(=O)[C@H]1O[C@@H](n2cnc3c(N)nc(NCCc4ccc(CCC(=O)O)cc4)nc32)[C@H](O)[C@@H]1O` [CGS-21680, 2-(4-(2-carboxyethyl)phenethylamino)-5′-N-ethylcarboxamidoadenosine], the “Synergy score … RPMI-8226” value in test [1] (setting [7]) turned out to be 2.54. Moreover, the “Induction of CLL cell apoptosis” value is reported as 12% in test [6] (CGS-21680 0.05 μM alone), 14% in test [6] (CGS-21680 0.15 μM alone) and 16% in test [6] (CGS-21680 0.45 μM alone). Also, the “apoptosis, CLL cells patient 1” value in test [6] (patient 1, 48 hours) was found to be 14%. The “apoptosis, CLL cells patient #2” value in test [6] (patient #2, 48 hours) is 9%. Besides, the “Synergy score with dexamethasone, MM.1S” value in test [3] (72 h) worked out at 4.73.

For `Nc1ccn([C@@H]2O[C@H](CO)[C@@H](O)C2(F)F)c(=O)n1` [Gemcitibine], the synergy score in test [1] (in combination with ADAC) is 0.3; in test [2] (in combination with ADAC) it was 0.07; in test [5] (setting [9]), 1.2; in test [3] (in combination with ADAC), 1.42.

Take `COc1ccc(Cc2nccc3cc(OC)c(OC)cc23)cc1OC` [Papaverine, 1-[(3.4-dimethoxyphenyl)-methyl]-6,7-dimethoxyisoquinolone]: the “Synergy score … RPMI-8226” value in test [1] (setting [7]) was determined as 3.49. The “Synergy score with dexamethasone, H929” value in test [2] turned out to be 3.05. Also, in test [3] (72 h), the “Synergy score with dexamethasone, MM.1S” value turned out to be 2.99.

In the case of `CC(=O)S[C@@H]1CC2=CC(=O)CC[C@]2(C)[C@H]2CC[C@@]3(C)[C@@H](CC[C@@]34CCC(=O)O4)[C@H]12` [Spironolactone], the synergy score in test [1] (in combination with ADAC) was found to be 0.8213; in test [1] (in combination with HE-NECA), 0.6876; in test [2] (in combination with ADAC), 0.6779; in test [2] (in combination with HE-NECA), 1.831; in test [5] (setting [9]), 2.029; in test [5] (setting [10]), 1.151. The synergy score is recorded as 1.444 in test [3] (in combination with ADAC) and 1.835 in test [3] (in combination with HE-NECA).

With `CN(C(=O)CCCOc1ccc2[nH]c(=O)ccc2c1)C1CCCCC1` [Cilostamide, N-cyclohexyl-4-((1,2-dihydro-2-oxo-6-quinolinyl)oxy)-N-methyl-butanamide], in test [1] (setting [7]), the “Synergy score … RPMI-8226” value turned out to be 1.42. The “Synergy score with dexamethasone, H929” value in test [2] was found to be 0.982. Further, in test [3] (setting [8]), the inhibition at 0.368 µM worked out at 0.46%, the inhibition at 1.1 µM is 2.4%, the inhibition at 3.31 µM is -2% and the inhibition at 9.93 µM is 4.2%. Further, the inhibition at 29.8 µM in test [3] (setting [8]) came out at 33%. Further, the “Synergy score with dexamethasone, MM.1S” value in test [3] (72 h) was determined as 1.34.

Regarding `C[C@@H]1C[C@H]2O[C@@H]2/C=C\C=C\C(=O)Cc2c(Cl)c(O)cc(O)c2C(=O)O1` [Monordon], the “synergy score” value in test [5] was 1.7.

Turning to `C#C[C@]1(O)CC[C@H]2[C@@H]3CCC4=CC(=O)CCC4=C3C=C[C@@]21CC` [Gestrinone], the “synergy score” value in test [5] turned out to be 1.19.

As to `COc1cccc2c1C(=O)c1c(O)c3c(c(O)c1C2=O)C[C@@](O)(C(=O)CO)C[C@@H]3O[C@H]1C[C@H](N)[C@@H](O)[C@H](C)O1` [Epirubicin], the synergy score in test [1] (in combination with ADAC) is reported as 1.14; in test [2] (in combination with ADAC) it was 0.33; in test [5] (setting [9]), 1.42.

On to `Cn1cnc([N+](=O)[O-])c1Sc1ncnc2nc[nH]c12` [Azathioprine], for which the synergy score in test [1] (in combination with ADAC) is on record as 1.63; in test [2] (in combination with ADAC), 1.22; in test [5] (setting [9]), 1.26; in test [3] (in combination with ADAC), 1.43.

Turning to `COc1ccc(C2CNC(=O)C2)cc1OC1CCCC1` (centres unmarked) [Rolipram, 4-(3-cyclopentyloxy-4-methoxyphenyl)-2-pyrrolidone], the “Synergy score … RPMI-8226” value in test [1] (setting [7]) was determined as 1.43. Also, in test [2], the “Synergy score with dexamethasone, H929” value is 0.0927. Also, in test [3] (72 h), the “Synergy score with dexamethasone, MM.1S” value turned out to be 0.203.

On to `O=c1cc(N2CCOCC2)oc2c(-c3ccccc3)cccc12` [LY 294002], for which, in test [5] (setting [10]), the “synergy score” value was determined as 0.83.

In the case of `CCc1c2c(nc3ccc(OC(=O)N4CCC(N5CCCCC5)CC4)cc13)-c1cc3c(c(=O)n1C2)COC(=O)[C@]3(O)CC` [Irinotecan hydrochloride], the synergy score in test [1] (in combination with ADAC) was 1.414; in test [1] (in combination with HE-NECA), 1.227; in test [2] (in combination with ADAC) it was 1.877; in test [2] (in combination with HE-NECA) it was 0.6736; in test [5] (setting [9]), 3.13; in test [5] (setting [10]) it was 0.6972. In addition, the results for the synergy score in test [3] (in combination with ADAC) and in test [3] (in combination with HE-NECA) were 2.576 and 0.6406, respectively.

For the origin of these results see patent US20090053168A1, “TREATMENTS OF B-CELL PROLIFERATIVE DISORDERS” (priority 2007, published 2009).
